What was measured:
[1] = system: Mycobacterium avium ATCC700898; assay: Determination of IC85 against M. avium (resazurin fluorescence); format: cell-based; conditions: Mycobacterium avium, ATCC700898, M. avium ATCC700898, CAMHB medium, 37° C., 3 days incubation then resazurin, fluorescence one day later; read-out: IC85
[2] = Metabolic stability test in pooled human liver microsomes; format: in vitro ADME; conditions: human liver microsomes 0.5 mg protein/mL, 1 mmol/L NADPH, 37° C., 30 minutes
Protocol: Using a commercially available pooled human liver microsomes, a compound of the present invention was reacted for a constant time, a remaining rate was calculated by comparing a reacted sample and an unreacted sample, thereby, a degree of metabolism in liver was assessed.
A reaction was performed (oxidative reaction) at 37° C. for 0 minute or 30 minutes in the presence of 1 mmol/L NADPH in 0.2 mL of a buffer (50 mmol/L Tris-HCl pH 7.4, 150 mmol/L potassium chloride, 10 mmol/L magnesium chloride) containing 0.5 mg protein/mL of human liver microsomes. After the reaction, 50 μL of the reaction solution was added to 100 μL of a methanol/acetonitrile=1/1 (v/v), mixed and centrifuged at 3000 rpm for 15 minutes. The compound of the present invention in the supernatant was quantified by LC/MS/MS or solid phase extraction (SPE)/MS, and a remaining amount of the compound of the present invention after the reaction was calculated, letting a compound amount at 0 minute reaction time to be 100%.

Row | SMILES | IC85 [1] [nM] | MS_h_% (remaining amount of compound after reaction, 0 minute = 100%) [2] [%]
1 | COc1ccn2nc(C)c(C(=O)NCc3ccc(N4CCN(c5ccc(OC(F)(F)F)cc5)[C@H]5CCCC[C@@H]54)c(F)c3)c2c1 [Compound I-1-125] | 780 | 68
2 | COc1ccn2nc(C)c(C(=O)NCc3ccc(N4CCN(c5ccc(OC(F)(F)F)cc5)[C@@H](C)C4)c(F)c3)c2c1.Cl [Compound I-1-90] | 5.2 | 91
3 | COc1ccn2nc(C)c(C(=O)NCc3ccc(N4CCN(c5ccc(OC(F)(F)F)cc5)[C@H](C)C4)c(F)c3)c2c1.Cl [Compound I-1-91] | 5.3 | 89
4 | CCCC[C@H]1CN(c2ccc(CNC(=O)c3c(CC)nc4cc(F)ccn34)cc2F)CCN1c1ccc(OC(F)(F)F)cc1.Cl [Compound I-2-6] | 4.4 | 80.8
5 | Cc1ccc2nc(C)c(C(=O)NCc3ccc(Oc4cccc(C(F)(F)F)c4)cc3)n2c1 [Compound I-3-21] | 130 | 79.1
6 | Cc1nc2ccc(Br)cn2c1C(=O)NCc1ccc(N2CCN(c3ccc(C(F)(F)F)cn3)CC2)c(F)c1 [Compound I-2-11] | 20 | 71.7
7 | COc1ccn2nc(C)c(C(=O)NCc3ccc(C4CCN(c5ccc(OC(F)(F)F)cc5)CC4)c(F)c3)c2c1.Cl [Compound I-1-89] | 7.2 | 65
8 | CCc1nc2cc(F)ccn2c1C(=O)NCc1ccc(N2CCN(c3ccc(OC(F)(F)F)cc3)[C@@H](C)C2)c(F)c1 [Compound I-1-38] | 1.3 | 90
9 | CCc1nc2ccc(Cl)cn2c1C(=O)NCc1ccc(C2CCN(c3ccc(OCC4CC4)nc3)CC2)c(F)c1.Cl [Compound I-1-76] | 46 | 80
10 | COc1ccn2nc(C)c(C(=O)NCc3ccc(N4C[C@H](C)N(c5ccc(OC(F)(F)F)cc5)C[C@H]4C)c(F)c3)c2c1.Cl [Compound I-1-153] | 31 | 72
11 | CCOc1ccc(N2CCN(c3ccc(CNC(=O)c4c(CC)nc5ccc(Cl)cn45)c(F)c3)C[C@@H]2C)c(F)c1.Cl [Compound I-1-101] | 470 | 90
12 | Cc1nc2ccc(Cl)cn2c1C(=O)NCc1ccc(N2CCN(c3ccc(OC(F)(F)F)cc3)[C@H](C)C2)c(F)c1.Cl [Compound I-1-85] | 6.9 | 91
13 | Cc1ccn2c(C(=O)NCc3ccc(C4CCN(c5ccc(OC(C)C)cc5)CC4)c(F)c3)c(C)nc2c1 [Compound I-1-4] | 100 | 88
14 | CCc1nc2ccc(Cl)cn2c1C(=O)NCc1cc(F)c(N2CCC(c3ccc(OC(F)(F)F)cc3)CC2)c(F)c1.Cl [Compound I-1-66] | 11 | 83
15 | CCc1nc2ccc(Cl)cn2c1C(=O)NCc1ccc([C@@H]2CO[C@@H](c3ccc(OC(F)(F)F)cc3)CO2)c(F)c1 [Compound I-1-86] | 28 | 77
16 | Cc1cn2c(C(=O)NCc3ccc(N4CCC5(CCN(c6ccc(C(F)(F)F)cc6)CC5)CC4)c(F)c3)c(C)nc2s1 [Compound I-3-10] | 29 | 84.9
17 | Cc1ccn2c(C(=O)NCc3ccc(C4CCN(c5ccc(OCC(F)(F)F)cc5)CC4)c(F)c3)c(C)nc2c1 [Compound I-1-21] | 38 | 89
18 | CCc1nc2cc(F)ccn2c1C(=O)NCc1ccc(N2CCN(c3ccc(OC(F)(F)F)cc3)[C@@H](C)C2)c(Cl)c1.Cl [Compound I-1-141] | 2 | 93
19 | CCc1nc2ccc(Cl)cn2c1C(=O)NCc1ccc(C2CCN(c3ccc(OCC4CC4)cc3)CC2)c(F)c1.Cl [Compound I-1-75] | 16 | 71
20 | Cc1nc2cc(C(F)(F)F)ccn2c1C(=O)NCc1ccc(C2CCN(c3ccc(OC(F)(F)F)cc3)CC2)c(F)c1 [Compound I-1-14] | 760 | 79
21 | Cc1nc2cc(Cl)ccn2c1C(=O)NCc1ccc(N2CCN(c3ccc(OC(F)(F)F)cc3)[C@@H](C)C2)c(F)c1.Cl [Compound I-1-51] | 110 | 90
22 | CCOc1ccc(N2CCN(c3ccc(CNC(=O)c4c(CC)nc5ccc(Cl)cn45)cc3F)C[C@@H]2C)cc1F.Cl [Compound I-1-53] | 37 | 65

Row | SMILES | IC85 [1] [nM] | MS_h_% (remaining amount of compound after reaction, 0 minute = 100%) [2] [%]
23 | [2H]c1c(C([2H])([2H])[2H])c([2H])c2nc(C)c(C(=O)NCc3ccc(C4CCN(c5ccc(OC(F)(F)F)cc5)CC4)c(F)c3)n2c1[2H] [Compound I-3-5] | 21 | 93.7
24 | Cc1cn2c(C(=O)NCc3ccc(-c4ccc(OCC(F)(F)F)cc4)c(F)c3)c(C)nc2s1 [Compound I-3-30] | 31 | 75.1
25 | Cc1cn2c(C(=O)NCc3ccc(N4CC=C(c5ccc(OC(F)(F)F)cc5)CC4)c(F)c3)c(C)nc2s1.Cl [Compound I-3-12] | 340 | 84.4
26 | CCc1nc2ccc(Cl)cn2c1C(=O)NCc1ccc(C2CCN(c3ccc(OC4CC4)cc3)CC2)c(F)c1.Cl [Compound I-1-74] | 39 | 64
27 | CCc1nc2ccc(Cl)cn2c1C(=O)NCc1ccc(C2=C[C@H](C)N(c3ccc(OC(F)(F)F)cc3)CC2)c(F)c1.Cl [Compound I-1-107] | 7 | 71
28 | CCOc1ccc(N2CCC(c3ccc(CNC(=O)c4c(CC)nc5ccc(Cl)cn45)c(F)c3)CC2)cc1.Cl [Compound I-1-143] | 23 | 77
29 | CCc1nc2cc(Cl)ccn2c1C(=O)NCc1ccc(N2CCN(c3ccc(OC(F)(F)F)cc3)[C@@H](C)C2)c(F)c1 [Compound I-1-35] | 26 | 91
30 | Cc1cn2c(C(=O)NCc3cc(F)c(N4CCC(c5ccc(OC(F)(F)F)cc5)CC4)c(F)c3)c(C)nc2s1.Cl [Compound I-3-16] | 110 | 81.4
31 | Cc1ccn2c(C(=O)NCc3ccc(-c4ccc(OCC(F)(F)F)cc4)c(F)c3)c(C)nc2c1 [Compound I-3-4] | 43 | 94.6
32 | Cc1ccn2c(C(=O)NCc3ccc(Oc4ccc(C(F)(F)F)cc4)cc3)c(C)nc2c1 [Compound I-3-19] | 440 | 80.9
33 | Cc1ccn2c(C(=O)NCc3ccc(-c4ccc(OC(C)C)cc4)c(F)c3)c(C)nc2c1 [Compound I-3-9] | 130 | 85.9
34 | Cc1cn2c(C(=O)NCc3ccc(-c4ccc(OC(C)C)cc4)c(F)c3)c(C)nc2s1 [Compound I-3-22] | 370 | 78.5
35 | CCOc1ccc(N2CCC(c3ccc(CNC(=O)c4c(CC)nc5cc(F)ccn45)c(F)c3)CC2)cc1.Cl [Compound I-1-147] | 8.3 | 91
36 | CCc1nc2ccc(Cl)cn2c1C(=O)NCc1ccc(N2CCN(c3ccc(OC(F)(F)F)cc3)[C@@H](C)C2)c(F)c1F.Cl [Compound I-1-93] | 11 | 67
37 | Cc1nc2ccc(C#N)cn2c1C(=O)NCc1ccc(N2CCN(c3ccc(OC(F)(F)F)cc3)[C@@H](C)C2)c(F)c1.Cl [Compound I-1-50] | 500 | 94
38 | CCc1nc2ccc(Cl)cn2c1C(=O)NCc1ccc(-c2ccc(OC(F)(F)F)cc2)nc1 [Compound I-3-18] | 190 | 80.9
39 | Cc1ccn2c(C(=O)NCc3ccc(N4CCC(c5ccc(OC(F)(F)F)cc5)CC4)c(F)c3)c(C)nc2c1.Cl [Compound I-1-65] | 120 | 96
40 | CC[C@H]1CN(c2ccc(CNC(=O)c3c(C)nn4ccc(OC)cc34)cc2F)CCN1c1ccc(OC(F)(F)F)cc1.Cl [Compound I-2-9] | 19 | 73.5
41 | CCc1nc2cc(F)ccn2c1C(=O)NCc1ccc(C2CCN(c3ccc(OCC(F)(F)F)nc3)CC2)cc1F.Cl [Compound I-1-146] | 26 | 85
42 | Cc1nc2ccc(Cl)cn2c1C(=O)NCc1ccc(N2C[C@H](C)N(c3ccc(OCC(F)(F)F)nc3)C[C@H]2C)c(F)c1.Cl [Compound I-1-137] | 100 | 91
43 | CCc1nc2cc(F)ccn2c1C(=O)NCc1cc(F)c(N2CCC(c3ccc(OC(F)(F)F)cc3)CC2)c(F)c1.Cl [Compound I-1-88] | 6.1 | 89

Reference: patent US20220340566A1, “BENZYL AMINE-CONTAINING 5,6-HETEROAROMATIC COMPOUNDS USEFUL AGAINST MYCOBACTERIAL INFECTION” (priority 2019, published 2022)
